# From ChEMBL document CHEMBL3860070, “Optimization and biological evaluation of celastrol derivatives as Hsp90-Cdc37 interaction disruptors with improved druglike properties” (Bioorg Med Chem, 2016)
# Calls of active or inactive are those of the source. The rule behind the calls is not given here.
# How the values were obtained:
# PANC-1 [1] = assay: Induction of apoptosis in human PANC1 cells assessed as early apoptotic cells at 0.5 uM after 24 hrs by Annexin V-FITC/propidium iodide-based FACS analysis (reference value: 4.31 %); format: functional
# [2] = Antiproliferative activity against human A549 cells assessed as reduction in cell viability after 48 hrs by MTT assay; format: functional, cell-based; conditions: A549, 48 h
# [3] = Cell cycle arrest in human PANC1 cells assessed as accumulation at G0/G1 phase at 0.5 uM after 24 hrs by propidium iodide staining-based FACS analysis (reference value: 36.48 %); format: functional; conditions: PANC-1
# [4] = Cell cycle arrest in human PANC1 cells assessed as accumulation at S phase at 1 uM after 24 hrs by propidium iodide staining-based FACS analysis (reference value: 29.96 %); format: functional; conditions: PANC-1
# [5] = Cell cycle arrest in human PANC1 cells assessed as accumulation at G2/M phase at 1 uM after 24 hrs by propidium iodide staining-based FACS analysis (reference value: 33.56 %); format: functional; conditions: PANC-1
# PANC-1 [6] = assay: Induction of apoptosis in human PANC1 cells assessed as necrotic cells at 1 uM after 24 hrs by Annexin V-FITC/propidium iodide-based FACS analysis (reference value: 0.75 %); format: functional
# [7] = Permeability of the compound at pH 7.4 by PAMPA-based pION assay; format: ADME; conditions: read-out: permeability
# Homo sapiens = species on record: Homo sapiens; assay: Inhibition of His-tagged full length Hsp90/GST-tagged Cdc37 middle domain (unknown origin) interaction at 50 uM after 1 hr by TR-FRET assay relative to control
# PANC-1 [8] = assay: Induction of apoptosis in human PANC1 cells after 24 hrs by Annexin V-FITC/propidium iodide-based FACS analysis; format: functional, cell-based
# [9] = Antiproliferative activity against paclitaxel-resistant human A549 cells assessed as reduction in cell viability after 48 hrs by MTT assay; format: functional, cell-based; conditions: A549, 48 h
# [10] = Cell cycle arrest in human PANC1 cells assessed as accumulation at G0/G1 phase at 1 uM after 24 hrs by propidium iodide staining-based FACS analysis (reference value: 36.48 %); format: functional; conditions: PANC-1
# PANC-1 [11] = assay: Induction of apoptosis in human PANC1 cells assessed as viable cells at 1 uM after 24 hrs by Annexin V-FITC/propidium iodide-based FACS analysis (reference value: 94.63 %); format: functional; conditions: PANC-1, 24 h, read-out: Activity
# PANC-1 [12] = assay: Inhibition of Hsp90/Cdc37 interaction in human PANC1 cells assessed as induction of Hsp70 at 0.1 to 5 uM after 24 hrs by Western blot analysis; format: cell-based
# [13] = Antiproliferative activity against human MCF7 cells assessed as reduction in cell viability after 48 hrs by MTT assay; format: functional, cell-based; conditions: MCF7, 48 h
# [14] = Inhibition of His-tagged full length Hsp90/GST-tagged Cdc37 middle domain (unknown origin) interaction after 1 hr by TR-FRET assay; design: species or system Homo sapiens
# [15] = Antiproliferative activity against human PANC1 cells assessed as reduction in cell viability after 48 hrs by MTT assay; format: functional, cell-based; conditions: PANC-1, 48 h
# PANC-1 [16] = assay: Induction of apoptosis in human PANC1 cells assessed as late apoptotic cells at 1 uM after 24 hrs by Annexin V-FITC/propidium iodide-based FACS analysis (reference value: 0.30 %); format: functional
# PANC-1 [17] = assay: Induction of apoptosis in human PANC1 cells assessed as necrotic cells at 0.5 uM after 24 hrs by Annexin V-FITC/propidium iodide-based FACS analysis (reference value: 0.75 %); format: functional
# PANC-1 [18] = assay: Inhibition of Hsp90/Cdc37 interaction in human PANC1 cells assessed as downregulation of Akt after 24 hrs by Western blot analysis; format: cell-based
# PANC-1 [19] = assay: Inhibition of Hsp90/Cdc37 interaction in human PANC1 cells assessed as downregulation of Cdk4 after 24 hrs by Western blot analysis; format: cell-based
# PANC-1 [20] = assay: Induction of apoptosis in human PANC1 cells assessed as viable cells at 0.5 uM after 24 hrs by Annexin V-FITC/propidium iodide-based FACS analysis (reference value: 94.63 %); format: functional; conditions: PANC-1, 24 h, read-out: Activity
# PANC-1 [21] = assay: Induction of apoptosis in human PANC1 cells assessed as late apoptotic cells at 0.5 uM after 24 hrs by Annexin V-FITC/propidium iodide-based FACS analysis (reference value: 0.30 %); format: functional
# PANC-1 [22] = assay: Induction of apoptosis in human PANC1 cells assessed as early apoptotic cells at 1 uM after 24 hrs by Annexin V-FITC/propidium iodide-based FACS analysis (reference value: 4.31 %); format: functional
# [23] = Cell cycle arrest in human PANC1 cells assessed as accumulation at S phase at 0.5 uM after 24 hrs by propidium iodide staining-based FACS analysis (reference value: 29.96 %); format: functional; conditions: PANC-1
# [24] = Cell cycle arrest in human PANC1 cells assessed as accumulation at G2/M phase at 0.5 uM after 24 hrs by propidium iodide staining-based FACS analysis (reference value: 33.56 %); format: functional; conditions: PANC-1
structure (smiles),measurement,setting,value
CC1=C(O)C(=O)C=C2C1=CC=C1[C@@]2(C)CC[C@@]2(C)[C@@H]3C[C@](C)(C(=O)NCCN4CCN(C)CC4)CC[C@]3(C)CC[C@]12C,Activity,PANC-1 [1],8.37%
same,IC50,[2],1.01 µM
same,Activity,[3],46.6%
same,Activity,[4],18.7%
same,Activity,[5],25.9%
same,Activity,PANC-1 [6],2.31%
same,Papp,[7],29 ×10⁻⁶ cm/s
same,inhibition,Homo sapiens,96.9%
same,Activity,PANC-1 [8],Dose-dependent effect
same,IC50,[9],0.45 µM
same,Activity,[10],55.4%
same,viability at 1 µM,PANC-1 [11],64.1%
same,inhibition,PANC-1 [12],Active
same,IC50,[13],1.02 µM
same,IC50,[14],4.71 µM
same,IC50,[15],1.12 µM
same,Activity,PANC-1 [16],2.61%
same,Activity,PANC-1 [17],1.27%
same,inhibition,PANC-1 [18],Dose-dependent effect
same,inhibition,PANC-1 [19],Dose-dependent effect
same,viability at 0.5 µM,PANC-1 [20],90%
same,Activity,PANC-1 [21],0.4%
same,Activity,PANC-1 [22],31.01%
same,Activity,[23],21.4%
same,Activity,[24],32%
